Experiments:
[1] = tested on: T1, Isoflavones conjugate hydrolyzing β-glucosidase (ICHG); experiment: 4-nitrophenol release at […] nm, Lineweaver-Burk plot; format: biochemical, Cyamopsis tetragonoloba; details: optimum pH 4.5 and 37 °C; citrate phosphate buffer 0.1 M; PNPG 0.1-5 mM
T1 construct: native, purified from dried seeds (ammonium sulphate, Sephadex G-75, DEAE-Sepharose); ~50 kDa subunit, ~150 kDa native, probable homotrimer; five internal peptides closest to Cicer arietinum beta-glucosidase

[2] = molecular target: Isoflavones conjugate hydrolyzing β-glucosidase (ICHG) from Cyamopsis tetragonoloba (guar) (Cyamopsis tetragonoloba (guar)); experiment: SEC; Sephadex G-75 column (1.8 x 50 cm), 0.02 M sodium phosphate buffer pH 6, standard proteins of 66 to 124 kDa; native mass (~150 kDa) compared with the subunit mass on SDS-PAGE (~50 kDa)

Km [1] [µM] | stoichiometry N [2] | Compound
860 |  | O=[N+]([O-])c1ccc(O[C@@H]2O[C@H](CO)[C@@H](O)[C@H](O)[C@H]2O)cc1 [para nitrophenyl -β-D- glucopyranoside]
 | 3 | Isoflavones conjugate hydrolyzing β-glucosidase (ICHG) from Cyamopsis tetragonoloba (guar) (enzyme)

— publication PMC6700428, “Purification and characterization of an isoflavones conjugate hydrolyzing β-glucosidase (ICHG) from Cyamopsis tetragonoloba (guar)” (Biochemistry and Biophysics Reports, 2019)
